According to PubChem BioAssay AID1918952 (Molecular Pharmacology Branch, DTP, NCI, 2023):

Test system: LG0703-F948-PDC complex spheroid viability
Assay: Anticancer human tumor LG0703-F948-PDC patient-derived lung adenocarcinoma cell line growth inhibition
Conditions: for IC50: curve of first compound; for viability, T/C: stronger effect = lower value; active = viability on the fitted dose curve at most 10% of control; inactive = the rest
Summary of the method: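 Multicellular complex spheroids of tumor cells with human endothelial cells (HUVEC) and mesenchymal stem cells; the LSD1 inhibitor iadademstat was combined with standard-of-care or investigational agents. Top concentration at or near clinical Cmax, half-log dilutions; final DMSO ≤0.25%.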

[1] = second compound 0.1 µM, first compound 0.0316 µM
[2] = second compound 0.1 µM, first compound 0.1 µM
[3] = second compound 0.1 µM, first compound 0.316 µM
[4] = second compound 0.1 µM, first compound 1 µM
[5] = second compound 0.1 µM, first compound 3.16 µM
[6] = second compound 0.1 µM, first compound 10 µM
[7] = second compound 0.316 µM, first compound 0.0316 µM
[8] = second compound 0.316 µM, first compound 0.1 µM
[9] = second compound 0.316 µM, first compound 0.316 µM
[10] = second compound 0.316 µM, first compound 1 µM
[11] = second compound 0.316 µM, first compound 3.16 µM
[12] = second compound 0.316 µM, first compound 10 µM
[13] = second compound 1 µM, first compound 0.0316 µM
[14] = second compound 1 µM, first compound 0.1 µM
[15] = second compound 1 µM, first compound 0.316 µM
[16] = second compound 1 µM, first compound 1 µM
[17] = second compound 1 µM, first compound 3.16 µM
[18] = second compound 1 µM, first compound 10 µM
[19] = second compound 3.16 µM, first compound 0.0316 µM
[20] = second compound 3.16 µM, first compound 0.1 µM
[21] = second compound 3.16 µM, first compound 0.316 µM
[22] = second compound 3.16 µM, first compound 1 µM
[23] = second compound 3.16 µM, first compound 3.16 µM
[24] = second compound 3.16 µM, first compound 10 µM
[25] = second compound 10 µM, first compound 0.0316 µM
[26] = second compound 10 µM, first compound 0.1 µM
[27] = second compound 10 µM, first compound 0.316 µM
[28] = second compound 10 µM, first compound 1 µM
[29] = second compound 10 µM, first compound 3.16 µM
[30] = second compound 10 µM, first compound 10 µM
[31] = second compound 0.1 µM, first compound 0.00316 µM
[32] = second compound 0.1 µM, first compound 0.01 µM
[33] = second compound 0.316 µM, first compound 0.00316 µM
[34] = second compound 0.316 µM, first compound 0.01 µM
[35] = second compound 1 µM, first compound 0.00316 µM
[36] = second compound 1 µM, first compound 0.01 µM
[37] = second compound 3.16 µM, first compound 0.00316 µM
[38] = second compound 3.16 µM, first compound 0.01 µM
[39] = second compound 10 µM, first compound 0.00316 µM
[40] = second compound 10 µM, first compound 0.01 µM
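Note: spheroids exposed to agents for seven days before readout.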
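Throughout, for viability, T/C: 100% = DMSO vehicle control wells as normalization base.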

CC(C)c1c(-c2ccccc2)nc2c(C#N)c[nH]n2c1=O + NC1CCC(NC2CC2c2ccccc2)CC1
inactive: viability, T/C [1] 101% | viability, T/C [2] 95.8% | viability, T/C [3] 85.5% | viability, T/C [4] 90.1% | viability, T/C [5] 102% | viability, T/C [6] 78.3% | viability, T/C [7] 98.1% | viability, T/C [8] 104% | viability, T/C [9] 97.4% | viability, T/C [10] 95% | viability, T/C [11] 101% | viability, T/C [12] 85.9% | viability, T/C [13] 110% | viability, T/C [14] 102% | viability, T/C [15] 106% | viability, T/C [16] 83% | viability, T/C [17] 98.4% | viability, T/C [18] 89.1% | viability, T/C [19] 106% | viability, T/C [20] 108% | viability, T/C [21] 108% | viability, T/C [22] 105% | viability, T/C [23] 107% | viability, T/C [24] 94.1% | viability, T/C [25] 110% | viability, T/C [26] 119% | viability, T/C [27] 113% | viability, T/C [28] 105% | viability, T/C [29] 100% | viability, T/C [30] 85.8%
> 10000 nM: IC50 (second compound 0.1 µM) | IC50 (second compound 0.316 µM) | IC50 (second compound 1 µM) | IC50 (second compound 3.16 µM) | IC50 (second compound 10 µM)

CC1COCCN1c1cc(-c2ccnn2C)c2ccnc(-c3ccn[nH]3)c2n1 (stereo not given) + NC1CCC(NC2CC2c2ccccc2)CC1
42.6 nM: IC50 (second compound 1 µM)
inactive: viability, T/C [31] 76.3% | viability, T/C [32] 71.6% | viability, T/C [1] 52.8% | viability, T/C [2] 37.5% | viability, T/C [3] 25.5% | viability, T/C [4] 13.5% | viability, T/C [33] 69.9% | viability, T/C [34] 79.5% | viability, T/C [7] 54.6% | viability, T/C [8] 36.2% | viability, T/C [9] 26.2% | viability, T/C [10] 16% | viability, T/C [35] 99.8% | viability, T/C [36] 72.4% | viability, T/C [13] 60.2% | viability, T/C [14] 34.7% | viability, T/C [15] 21.6% | viability, T/C [16] 17.6% | viability, T/C [37] 78.8% | viability, T/C [38] 85.8% | viability, T/C [19] 77% | viability, T/C [20] 38.1% | viability, T/C [21] 24.2% | viability, T/C [22] 13.9% | viability, T/C [39] 82.3% | viability, T/C [40] 78.9% | viability, T/C [25] 55.6% | viability, T/C [26] 30.1% | viability, T/C [27] 21.1% | viability, T/C [28] 11.5%
43.8 nM: IC50 (second compound 0.1 µM)
42.5 nM: IC50 (second compound 10 µM)
48.5 nM: IC50 (second compound 0.316 µM)
71.1 nM: IC50 (second compound 3.16 µM)

CC1COCCN1c1cc(C2(S(C)(=N)=O)CC2)nc(-c2ccnc3[nH]ccc23)n1 (stereo not given) + NC1CCC(NC2CC2c2ccccc2)CC1
4930 nM: IC50 (second compound 3.16 µM)
4130 nM: IC50 (second compound 10 µM)
4800 nM: IC50 (second compound 0.316 µM)
5730 nM: IC50 (second compound 1 µM)
inactive: viability, T/C [1] 107% | viability, T/C [2] 108% | viability, T/C [3] 103% | viability, T/C [4] 94.4% | viability, T/C [5] 64% | viability, T/C [6] 28.4% | viability, T/C [7] 111% | viability, T/C [8] 112% | viability, T/C [9] 94.8% | viability, T/C [10] 96.3% | viability, T/C [11] 59.5% | viability, T/C [12] 30% | viability, T/C [13] 113% | viability, T/C [14] 104% | viability, T/C [15] 99.6% | viability, T/C [16] 100% | viability, T/C [17] 77.5% | viability, T/C [18] 23.8% | viability, T/C [19] 122% | viability, T/C [20] 118% | viability, T/C [21] 117% | viability, T/C [22] 96.4% | viability, T/C [23] 66% | viability, T/C [24] 25.5% | viability, T/C [25] 131% | viability, T/C [26] 129% | viability, T/C [27] 110% | viability, T/C [28] 88.1% | viability, T/C [29] 63.8% | viability, T/C [30] 14.2%
4990 nM: IC50 (second compound 0.1 µM)

COc1ccc([C@@H](O)c2cc(-c3ncnc4cc(N5CCOCC5)ccc34)c(F)cc2Cl)nn1 + NC1CCC(NC2CC2c2ccccc2)CC1
1030 nM: IC50 (second compound 10 µM)
inactive: viability, T/C [1] 100% | viability, T/C [2] 97.4% | viability, T/C [3] 88.4% | viability, T/C [4] 54.5% | viability, T/C [5] 17.4% | viability, T/C [7] 92.3% | viability, T/C [8] 110% | viability, T/C [9] 87.3% | viability, T/C [10] 54.8% | viability, T/C [11] 18.7% | viability, T/C [13] 110% | viability, T/C [14] 97.4% | viability, T/C [15] 84% | viability, T/C [16] 61.8% | viability, T/C [17] 16.1% | viability, T/C [19] 112% | viability, T/C [20] 95.3% | viability, T/C [21] 89.6% | viability, T/C [22] 56.5% | viability, T/C [23] 16.7% | viability, T/C [25] 118% | viability, T/C [26] 107% | viability, T/C [27] 92.4% | viability, T/C [28] 52.2% | viability, T/C [29] 12.4%
1170 nM: IC50 (second compound 0.316 µM) | IC50 (second compound 3.16 µM)
1160 nM: IC50 (second compound 0.1 µM)
1230 nM: IC50 (second compound 1 µM)
active: viability, T/C [6] 3.58% | viability, T/C [12] 4.54% | viability, T/C [18] 3.83% | viability, T/C [24] 3.27% | viability, T/C [30] 3.19%

Nc1ncn(C2CC(O)C(CO)S2)c(=O)n1 (stereo not given) + NC1CCC(NC2CC2c2ccccc2)CC1
> 300 nM: IC50 (second compound 0.1 µM) | IC50 (second compound 0.316 µM) | IC50 (second compound 1 µM) | IC50 (second compound 3.16 µM) | IC50 (second compound 10 µM)
inactive: viability, T/C (second compound 0.1 µM, first compound 0.000949 µM) 114% | viability, T/C (second compound 0.1 µM, first compound 0.003 µM) 117% | viability, T/C (second compound 0.1 µM, first compound 0.00949 µM) 107% | viability, T/C (second compound 0.1 µM, first compound 0.03 µM) 120% | viability, T/C (second compound 0.1 µM, first compound 0.0949 µM) 113% | viability, T/C (second compound 0.1 µM, first compound 0.3 µM) 99.9% | viability, T/C (second compound 0.316 µM, first compound 0.000949 µM) 124% | viability, T/C (second compound 0.316 µM, first compound 0.003 µM) 123% | viability, T/C (second compound 0.316 µM, first compound 0.00949 µM) 121% | viability, T/C (second compound 0.316 µM, first compound 0.03 µM) 113% | viability, T/C (second compound 0.316 µM, first compound 0.0949 µM) 128% | viability, T/C (second compound 0.316 µM, first compound 0.3 µM) 99.8% | viability, T/C (second compound 1 µM, first compound 0.000949 µM) 112% | viability, T/C (second compound 1 µM, first compound 0.003 µM) 115% | viability, T/C (second compound 1 µM, first compound 0.00949 µM) 118% | viability, T/C (second compound 1 µM, first compound 0.03 µM) 122% | viability, T/C (second compound 1 µM, first compound 0.0949 µM) 123% | viability, T/C (second compound 1 µM, first compound 0.3 µM) 104% | viability, T/C (second compound 3.16 µM, first compound 0.000949 µM) 121% | viability, T/C (second compound 3.16 µM, first compound 0.003 µM) 125% | viability, T/C (second compound 3.16 µM, first compound 0.00949 µM) 115% | viability, T/C (second compound 3.16 µM, first compound 0.03 µM) 121% | viability, T/C (second compound 3.16 µM, first compound 0.0949 µM) 137% | viability, T/C (second compound 3.16 µM, first compound 0.3 µM) 119% | viability, T/C (second compound 10 µM, first compound 0.000949 µM) 116% | viability, T/C (second compound 10 µM, first compound 0.003 µM) 126% | viability, T/C (second compound 10 µM, first compound 0.00949 µM) 115% | viability, T/C (second compound 10 µM, first compound 0.03 µM) 107% | viability, T/C (second compound 10 µM, first compound 0.0949 µM) 113% | viability, T/C (second compound 10 µM, first compound 0.3 µM) 108%

O=C(C=Cn1cnc(-c2cc(C(F)(F)F)cc(C(F)(F)F)c2)n1)NNc1cnccn1 + NC1CCC(NC2CC2c2ccccc2)CC1
< 3.16 nM: IC50 (second compound 0.1 µM) | IC50 (second compound 0.316 µM) | IC50 (second compound 10 µM)
inactive: viability, T/C [31] 45.3% | viability, T/C [32] 50.8% | viability, T/C [1] 37.8% | viability, T/C [2] 33% | viability, T/C [3] 30.6% | viability, T/C [4] 25.1% | viability, T/C [33] 47.3% | viability, T/C [34] 47.5% | viability, T/C [7] 43.8% | viability, T/C [8] 31.8% | viability, T/C [9] 33% | viability, T/C [10] 33.9% | viability, T/C [35] 56.6% | viability, T/C [36] 50.1% | viability, T/C [13] 44.5% | viability, T/C [14] 37.6% | viability, T/C [15] 29.7% | viability, T/C [16] 33.8% | viability, T/C [37] 58.4% | viability, T/C [38] 57.2% | viability, T/C [19] 48.3% | viability, T/C [20] 41.1% | viability, T/C [21] 32.8% | viability, T/C [22] 30.2% | viability, T/C [39] 41.7% | viability, T/C [40] 45.7% | viability, T/C [25] 45.7% | viability, T/C [26] 44.9% | viability, T/C [27] 37.4% | viability, T/C [28] 23.5%
29 nM: IC50 (second compound 3.16 µM)
9.15 nM: IC50 (second compound 1 µM)
